Test results: ChEMBL document CHEMBL1201862, “PubChem BioAssay data set” (2004)
Active and inactive are the calls of the source.

Key:
HEK293 [1] = assay: cells; type: functional, cell-based; conditions: Homo sapiens
[2] = NIH3T3 cell viability loss – ATP luminescence, mouse fibroblasts, counter-screen, dose response (AID 2010); type: functional, cell-based;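 note: cells exposed to compound for about 90 hours before reading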
HEK293 [3] = assay: NOD2 signaling inhibitors in MDP-stimulated cells, cell-based, uHTS, luminescence (AID 2001); type: functional; conditions: Homo sapiens
[4] = loss of viability in HepG2 cells – cell-based, CellTiter-Glo, cherry-picked, cytotoxicity control for Shn3 inhibitor project, dose response (AID 624134); type: functional
HEK293 [5] = assay: inhibition of NOD1-driven NF-kB reporter – cell-based, luminescence, uHTS, primary screen (AID 1578); type: functional; conditions: Homo sapiens
[6] = non-specific 3'UTR reporter inhibition in Clone20-Shn3RL – cell-based, Renilla luciferase, cherry-picked, counter-screen for Shn3 inhibitor project, dose response (AID 624133); type: functional
[7] = reduction of Shn3 3'UTR-driven luciferase in osteoblasts – cell-based, Clone20 osteoblasts, firefly luciferase, cherry-picked, dose response (AID 624132); type: functional;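 note: firefly luciferase luminescence from reporter carrying the Shn3 3'UTR in osteoblasts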
HEK293 [8] = assay: cells; type: functional, cell-based; conditions: Homo sapiens; remark: listed apart in the source
[9] = Trypanosoma cruzi growth suppression in host cells – NIH3T3 host cells, beta-gal luminescence, confirmation (AID 2044); type: functional, cell-based;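 note: intracellular parasites grown in NIH/3T3 mouse fibroblasts as host cells; luminescent beta-galactosidase reporter signal from transgenic T. cruzi replicating inside host cells; inhibitors lower the luminescence signal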
[10] = fluconazole-exposed Candida albicans growth modulators – fluorescence, retest, confirmation (AID 2467); type: functional, cell-based
[11] = general cell-killing toxicity readout – plate reader, dry powder samples, cytotoxicity control for PAX8 inhibitor project, dose response (AID 743021); type: functional, cell-based
[12] = molecular target: Nucleotide-binding oligomerization domain-containing protein 2 (Homo sapiens, UniProt Q9HC29); assay: inhibition of NOD2-driven NF-kB reporter – cell-based, luminescence, uHTS, HEK293 (AID 1566); type: functional
HEK293 [13] = assay: cells; type: functional, cell-based; conditions: Homo sapiens; remark: listed apart in the source
[14] = molecular target: T1, Heat shock factor protein 1 (Mus musculus, UniProt P38532); assay: enhancement of HSF1-driven luciferase signal – cell-based, NIH3T3, luminescence, dose retest, confirmation (AID 435004); type: functional;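 note: stress induced by proteasome inhibitor MG132 added 30 min after compound; luciferase reporter driven by HSF1 response element in NIH3T3 cells; actives raise luminescence as potentiators of the MG132 stress response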
T1 sequence (P38532 whole entry): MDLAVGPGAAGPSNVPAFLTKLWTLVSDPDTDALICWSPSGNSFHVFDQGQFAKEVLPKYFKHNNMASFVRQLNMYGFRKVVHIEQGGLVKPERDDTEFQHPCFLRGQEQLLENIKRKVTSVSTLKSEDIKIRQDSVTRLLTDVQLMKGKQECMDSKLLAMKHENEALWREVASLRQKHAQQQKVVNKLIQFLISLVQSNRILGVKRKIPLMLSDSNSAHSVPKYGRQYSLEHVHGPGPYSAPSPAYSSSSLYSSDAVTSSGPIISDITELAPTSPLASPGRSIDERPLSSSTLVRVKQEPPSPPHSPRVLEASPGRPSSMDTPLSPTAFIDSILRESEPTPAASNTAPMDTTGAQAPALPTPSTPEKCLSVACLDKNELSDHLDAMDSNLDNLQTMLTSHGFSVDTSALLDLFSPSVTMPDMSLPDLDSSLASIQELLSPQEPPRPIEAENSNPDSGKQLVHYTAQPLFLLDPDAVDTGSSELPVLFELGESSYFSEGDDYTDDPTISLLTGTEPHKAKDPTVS

[15] = NIH-3T3 fibroblast cytotoxicity, dose response, cytotoxicity control, cell-based, fluorescence, Alamar Blue, secondary assay (AID 2327); type: functional;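 note: NIH-3T3 mouse fibroblasts cultured with fluconazole at 8 µg/mL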
[16] = molecular target: T2, Alkaline phosphatase, tissue-nonspecific isozyme (Homo sapiens, UniProt P05186); assay: TNAP enzyme inhibition by screening hits, dose response, selectivity assay for mouse IAP inhibitor project, biochemical, human TNAP, uHTS hits (AID 488906); type: functional
T2 sequence (P05186 whole entry): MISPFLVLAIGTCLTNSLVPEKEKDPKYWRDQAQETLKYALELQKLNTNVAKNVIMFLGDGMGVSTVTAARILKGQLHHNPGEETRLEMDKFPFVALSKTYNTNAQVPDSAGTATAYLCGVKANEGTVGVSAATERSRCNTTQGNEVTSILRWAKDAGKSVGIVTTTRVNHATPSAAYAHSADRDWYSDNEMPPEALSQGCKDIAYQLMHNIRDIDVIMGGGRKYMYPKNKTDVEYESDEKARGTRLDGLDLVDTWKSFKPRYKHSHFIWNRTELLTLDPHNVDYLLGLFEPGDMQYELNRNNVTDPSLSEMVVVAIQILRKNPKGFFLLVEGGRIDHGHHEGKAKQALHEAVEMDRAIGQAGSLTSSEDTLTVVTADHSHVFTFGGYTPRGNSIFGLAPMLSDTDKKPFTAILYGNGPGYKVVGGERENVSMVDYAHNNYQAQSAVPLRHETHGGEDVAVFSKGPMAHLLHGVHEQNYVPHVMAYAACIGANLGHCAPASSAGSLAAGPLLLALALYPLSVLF

[17] = molecular target: Intestinal-type alkaline phosphatase (Homo sapiens, UniProt P09923); assay: inhibition of human intestinal alkaline phosphatase – biochemical, dose response (AID 488876); type: functional
[18] = molecular target: Intestinal-type alkaline phosphatase (Mus musculus, UniProt P24822); assay: PubChem AID 488785; type: functional
[19] = molecular target: T3, Long-chain-fatty-acid--AMP ligase FadD28 (Mycobacterium tuberculosis, UniProt P9WQ59); assay: Fluorescence polarization aasay to screen for inhibitors that compete for the binding of FadD28 to a bisubstrate Measured in Biochemical System Using Plate Reader - 2147-01_Inhibitor_Dose_CherryPick_Activity.; type: functional, Mycobacterium tuberculosis H37Rv
T3 sequence (P9WQ59 whole entry): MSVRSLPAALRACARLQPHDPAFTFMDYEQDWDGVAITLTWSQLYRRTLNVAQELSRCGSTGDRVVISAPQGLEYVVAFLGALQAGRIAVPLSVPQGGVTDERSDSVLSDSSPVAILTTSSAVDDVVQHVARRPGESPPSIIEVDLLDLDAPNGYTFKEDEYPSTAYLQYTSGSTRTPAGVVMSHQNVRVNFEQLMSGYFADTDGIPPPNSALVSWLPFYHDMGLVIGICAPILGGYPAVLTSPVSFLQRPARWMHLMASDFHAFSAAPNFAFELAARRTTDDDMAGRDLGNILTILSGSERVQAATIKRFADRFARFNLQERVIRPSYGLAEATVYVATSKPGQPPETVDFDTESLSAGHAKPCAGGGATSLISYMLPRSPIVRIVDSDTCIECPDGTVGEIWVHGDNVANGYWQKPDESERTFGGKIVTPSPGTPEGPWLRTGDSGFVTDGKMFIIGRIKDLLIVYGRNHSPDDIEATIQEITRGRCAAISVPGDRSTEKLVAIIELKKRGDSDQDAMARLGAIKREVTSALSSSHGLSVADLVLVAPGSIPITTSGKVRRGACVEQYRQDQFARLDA

[20] = molecular target: Heat shock protein HSP 90-alpha (Homo sapiens, UniProt P07900); type: functional, organism-based
[21] = Counterscreen for AddAB inhibitors: absorbance-based bacterial cell-based high throughput dose response assay for inhibitors of bacterial viability. [Related pubchem assays (depositor defined):AID435030, AID449728, AID449731, AID488942, AID488955, AID488956]; type: functional
Exodeoxyribonuclease V = Exodeoxyribonuclease V (Escherichia coli (strain K12), UniProt P04993+P07648+P08394); assay: RecBCD inhibition via phage-restricted bacterial growth – absorbance, V66 E. coli, mutant T4 phage, counter-screen for AddAB inhibitor project, dose response (AID 492957); type: functional, cell-based, Escherichia coli str. K-12 substr. MG1655
Exodeoxyribonuclease V, sequence (P04993 whole entry): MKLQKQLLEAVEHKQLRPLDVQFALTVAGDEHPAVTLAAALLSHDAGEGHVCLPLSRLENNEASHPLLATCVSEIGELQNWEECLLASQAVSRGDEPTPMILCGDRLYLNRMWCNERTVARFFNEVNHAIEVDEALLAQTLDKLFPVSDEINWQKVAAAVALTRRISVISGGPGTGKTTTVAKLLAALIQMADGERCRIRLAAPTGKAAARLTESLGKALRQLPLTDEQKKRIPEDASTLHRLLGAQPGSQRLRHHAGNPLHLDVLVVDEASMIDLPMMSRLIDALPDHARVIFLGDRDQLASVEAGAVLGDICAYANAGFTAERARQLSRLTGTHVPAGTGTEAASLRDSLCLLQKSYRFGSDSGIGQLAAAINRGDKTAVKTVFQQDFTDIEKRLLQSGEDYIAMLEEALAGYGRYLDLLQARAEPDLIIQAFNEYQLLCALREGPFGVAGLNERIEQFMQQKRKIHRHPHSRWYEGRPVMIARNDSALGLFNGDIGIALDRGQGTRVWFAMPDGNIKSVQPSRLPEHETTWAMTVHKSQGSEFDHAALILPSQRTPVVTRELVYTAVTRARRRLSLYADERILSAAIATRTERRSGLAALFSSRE
Exodeoxyribonuclease V, sequence (P07648 whole entry): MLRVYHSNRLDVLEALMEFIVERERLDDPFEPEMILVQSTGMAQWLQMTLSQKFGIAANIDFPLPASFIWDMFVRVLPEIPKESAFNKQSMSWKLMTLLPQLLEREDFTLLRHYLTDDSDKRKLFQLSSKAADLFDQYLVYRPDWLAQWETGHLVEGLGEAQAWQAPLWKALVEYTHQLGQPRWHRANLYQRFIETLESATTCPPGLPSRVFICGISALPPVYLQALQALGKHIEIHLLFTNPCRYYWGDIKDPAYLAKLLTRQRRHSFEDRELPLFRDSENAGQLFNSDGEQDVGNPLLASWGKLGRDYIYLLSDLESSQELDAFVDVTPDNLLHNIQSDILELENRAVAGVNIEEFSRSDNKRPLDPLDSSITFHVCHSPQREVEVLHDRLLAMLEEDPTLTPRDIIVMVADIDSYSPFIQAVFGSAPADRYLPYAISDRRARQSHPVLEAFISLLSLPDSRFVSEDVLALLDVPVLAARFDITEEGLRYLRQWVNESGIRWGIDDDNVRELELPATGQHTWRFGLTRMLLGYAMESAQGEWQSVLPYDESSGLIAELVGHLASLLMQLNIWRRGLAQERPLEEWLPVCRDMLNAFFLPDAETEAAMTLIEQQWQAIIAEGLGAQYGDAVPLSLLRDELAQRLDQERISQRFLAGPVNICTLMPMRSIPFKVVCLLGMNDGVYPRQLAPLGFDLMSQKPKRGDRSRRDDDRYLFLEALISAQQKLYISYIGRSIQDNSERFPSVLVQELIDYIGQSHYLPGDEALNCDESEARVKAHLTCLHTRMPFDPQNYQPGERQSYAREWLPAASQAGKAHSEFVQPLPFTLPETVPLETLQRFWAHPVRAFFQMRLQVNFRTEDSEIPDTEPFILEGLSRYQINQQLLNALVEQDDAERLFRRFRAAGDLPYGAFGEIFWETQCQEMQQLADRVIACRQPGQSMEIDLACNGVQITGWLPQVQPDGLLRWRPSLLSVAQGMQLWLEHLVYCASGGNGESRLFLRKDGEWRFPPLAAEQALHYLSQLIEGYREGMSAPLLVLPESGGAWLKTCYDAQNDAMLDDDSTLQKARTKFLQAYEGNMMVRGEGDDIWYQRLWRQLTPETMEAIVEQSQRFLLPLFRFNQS
Exodeoxyribonuclease V, sequence (P08394 whole entry): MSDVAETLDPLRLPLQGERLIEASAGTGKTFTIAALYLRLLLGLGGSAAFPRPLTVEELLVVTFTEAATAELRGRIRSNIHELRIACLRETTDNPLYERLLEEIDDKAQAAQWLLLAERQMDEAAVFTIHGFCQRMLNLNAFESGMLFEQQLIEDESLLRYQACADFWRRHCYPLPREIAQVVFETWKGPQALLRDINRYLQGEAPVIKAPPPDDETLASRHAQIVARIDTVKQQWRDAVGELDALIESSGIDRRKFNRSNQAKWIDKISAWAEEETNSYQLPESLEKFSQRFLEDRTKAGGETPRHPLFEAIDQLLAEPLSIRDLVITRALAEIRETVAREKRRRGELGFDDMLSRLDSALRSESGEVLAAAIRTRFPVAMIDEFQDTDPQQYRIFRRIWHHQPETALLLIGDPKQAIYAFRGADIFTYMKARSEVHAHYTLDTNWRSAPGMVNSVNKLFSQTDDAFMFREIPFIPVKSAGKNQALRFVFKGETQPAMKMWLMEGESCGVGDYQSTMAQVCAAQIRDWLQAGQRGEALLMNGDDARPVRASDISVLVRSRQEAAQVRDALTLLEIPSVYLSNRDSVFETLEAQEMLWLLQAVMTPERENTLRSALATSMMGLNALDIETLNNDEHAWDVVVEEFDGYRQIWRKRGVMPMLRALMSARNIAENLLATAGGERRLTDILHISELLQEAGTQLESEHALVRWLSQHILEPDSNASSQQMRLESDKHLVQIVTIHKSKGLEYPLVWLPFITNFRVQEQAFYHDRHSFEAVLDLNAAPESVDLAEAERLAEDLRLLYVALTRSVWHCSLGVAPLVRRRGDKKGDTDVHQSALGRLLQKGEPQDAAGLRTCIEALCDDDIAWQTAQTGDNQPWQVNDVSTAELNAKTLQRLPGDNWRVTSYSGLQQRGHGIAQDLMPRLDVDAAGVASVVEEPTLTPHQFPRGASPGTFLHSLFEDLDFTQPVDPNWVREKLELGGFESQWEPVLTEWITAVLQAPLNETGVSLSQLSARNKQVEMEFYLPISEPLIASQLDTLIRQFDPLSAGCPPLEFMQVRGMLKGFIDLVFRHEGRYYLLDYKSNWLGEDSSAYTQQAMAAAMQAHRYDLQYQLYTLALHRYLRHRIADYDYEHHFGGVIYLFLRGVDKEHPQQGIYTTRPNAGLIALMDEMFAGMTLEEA

Nucleotide-binding oligomerization domain-containing protein 2, sequence (Q9HC29 whole entry, the tested form may be a part): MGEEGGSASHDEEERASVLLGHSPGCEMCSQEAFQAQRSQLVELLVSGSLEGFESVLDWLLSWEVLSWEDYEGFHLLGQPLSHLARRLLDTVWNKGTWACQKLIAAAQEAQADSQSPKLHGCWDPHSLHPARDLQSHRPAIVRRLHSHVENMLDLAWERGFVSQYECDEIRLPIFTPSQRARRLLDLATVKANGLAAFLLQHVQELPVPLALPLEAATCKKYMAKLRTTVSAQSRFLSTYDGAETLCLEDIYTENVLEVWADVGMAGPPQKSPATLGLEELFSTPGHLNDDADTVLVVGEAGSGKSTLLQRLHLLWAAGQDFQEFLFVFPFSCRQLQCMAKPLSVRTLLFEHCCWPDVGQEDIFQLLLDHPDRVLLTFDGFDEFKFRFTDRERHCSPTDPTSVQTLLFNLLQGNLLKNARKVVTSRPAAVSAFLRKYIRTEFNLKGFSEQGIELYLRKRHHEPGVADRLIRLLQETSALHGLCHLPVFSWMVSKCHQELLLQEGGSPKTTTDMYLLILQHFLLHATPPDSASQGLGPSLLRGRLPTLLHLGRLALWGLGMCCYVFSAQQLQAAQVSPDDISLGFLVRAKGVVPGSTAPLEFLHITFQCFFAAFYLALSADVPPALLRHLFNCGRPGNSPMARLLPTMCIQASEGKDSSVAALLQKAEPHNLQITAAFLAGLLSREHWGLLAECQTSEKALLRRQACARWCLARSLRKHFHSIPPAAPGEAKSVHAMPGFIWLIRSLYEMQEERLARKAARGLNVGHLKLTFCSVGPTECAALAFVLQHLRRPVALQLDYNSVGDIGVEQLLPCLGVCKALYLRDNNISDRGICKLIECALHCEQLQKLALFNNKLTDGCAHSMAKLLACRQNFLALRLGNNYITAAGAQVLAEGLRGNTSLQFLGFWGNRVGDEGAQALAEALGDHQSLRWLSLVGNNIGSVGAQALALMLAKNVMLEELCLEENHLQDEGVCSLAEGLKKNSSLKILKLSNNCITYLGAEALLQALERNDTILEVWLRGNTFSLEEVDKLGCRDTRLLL
Intestinal-type alkaline phosphatase (Mus musculus, UniProt P24822), sequence (P24822 whole entry): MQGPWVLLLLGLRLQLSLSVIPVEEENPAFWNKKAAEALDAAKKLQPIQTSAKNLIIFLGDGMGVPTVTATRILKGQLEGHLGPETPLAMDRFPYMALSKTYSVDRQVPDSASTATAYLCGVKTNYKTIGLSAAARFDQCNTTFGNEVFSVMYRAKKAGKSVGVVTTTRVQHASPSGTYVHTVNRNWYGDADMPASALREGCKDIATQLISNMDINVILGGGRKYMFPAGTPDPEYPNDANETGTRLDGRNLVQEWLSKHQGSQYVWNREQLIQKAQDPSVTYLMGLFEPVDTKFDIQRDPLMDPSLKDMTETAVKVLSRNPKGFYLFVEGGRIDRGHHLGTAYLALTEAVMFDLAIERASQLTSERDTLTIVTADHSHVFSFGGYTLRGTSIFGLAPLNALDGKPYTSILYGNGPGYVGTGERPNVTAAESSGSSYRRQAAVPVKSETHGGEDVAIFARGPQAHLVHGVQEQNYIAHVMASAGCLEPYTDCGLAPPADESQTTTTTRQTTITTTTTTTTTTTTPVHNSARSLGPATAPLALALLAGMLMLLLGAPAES
Intestinal-type alkaline phosphatase (Homo sapiens, UniProt P09923), sequence (P09923 whole entry): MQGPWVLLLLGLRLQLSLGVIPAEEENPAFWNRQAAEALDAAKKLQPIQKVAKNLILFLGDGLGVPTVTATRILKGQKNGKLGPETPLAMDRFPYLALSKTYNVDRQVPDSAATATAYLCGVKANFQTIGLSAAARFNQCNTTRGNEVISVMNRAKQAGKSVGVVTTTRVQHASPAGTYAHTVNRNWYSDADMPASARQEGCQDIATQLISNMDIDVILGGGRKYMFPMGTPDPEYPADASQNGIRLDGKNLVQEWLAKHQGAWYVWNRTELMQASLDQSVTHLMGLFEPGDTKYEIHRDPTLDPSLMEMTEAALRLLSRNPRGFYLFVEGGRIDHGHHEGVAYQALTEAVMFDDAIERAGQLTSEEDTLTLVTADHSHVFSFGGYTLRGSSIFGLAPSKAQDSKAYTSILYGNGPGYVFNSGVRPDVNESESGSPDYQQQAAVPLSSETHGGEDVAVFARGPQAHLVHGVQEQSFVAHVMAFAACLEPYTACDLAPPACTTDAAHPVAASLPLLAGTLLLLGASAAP

With O=[N+]([O-])c1cccnc1S(=O)(=O)c1ccccc1 the IC50 (HEK293 [1]) was > 20 µM (inactive), the EC50 [2] was 4.16 µM (active) and the IC50 (HEK293 [3]) was 4.56 µM (active). The AC50 [4] was 51 µM (active), the EC50 (HEK293 [5]) was 12.4 µM (active) and the AC50 [6] was 5.79 µM (active). For the same compound, the AC50 [7] was 4.79 µM (active), the IC50 (HEK293 [8]) was 11.6 µM (active) and the EC50 [9] was 3.71 µM (active). The EC50 [10] was 2.63 µM (active), the AC50 [11] was 24.2 µM (active) and the EC50 [12] was > 20 µM (inactive). The IC50 (HEK293 [13]) was 2.38 µM (active), the EC50 [14] was 11.9 µM (active) and the EC50 [15] was 4.24 µM (inconclusive).
With O=C(NN1C(=O)/C(=C/c2ccc(O)cc2)SC1=S)c1ccccc1O the IC50 [16] was > 100 µM (inactive), the IC50 [17] was > 100 µM (inactive) and the IC50 [18] was 4.68 µM (active). For the same compound, the AC50 [19] was 61.9 µM (active).
With O=C1c2ccccc2NC(c2ccc(-c3ccc(C(F)(F)F)cc3)o2)N1O (configuration not stated) the AC50 [20] was 7.23 µM (active), the IC50 [21] was > 119 µM (inactive) and the IC50 (Exodeoxyribonuclease V) was > 119 µM (inactive).
